What was measured:
[1] = Volatilization from halogen bulb; purity of the aerosol by reverse-phase HPLC; format: physicochemical; conditions: thermal vapor from coated aluminum foil on 300 watt halogen tube, 60 V 5-12 s or 90 V 2.5-3.5 s; HPLC at 225 nm
Description: A solution of drug in approximately 120 μL dichloromethane is coated on a 3.5 cm×7.5 cm piece of aluminum foil (precleaned with acetone). The dichloromethane is allowed to evaporate. The coated foil is wrapped around a 300 watt halogen tube (Feit Electric Company, Pico Rivera, Calif.), which is inserted into a glass tube sealed at one end with a rubber stopper. Running 60 V of alternating current (driven by line power controlled by a variac) through the bulb for 5-12 s or 90 V for 2.5-3.5 s affords thermal vapor (including aerosol), which is collected on the glass tube walls. (When desired, the system is flushed through with argon prior to volatilization.) Reverse-phase HPLC analysis with detection by absorption of 225 nm light is used to determine the purity of the aerosol.
Table 1, which follows, provides data from drugs volatilized using the above-recited general procedure.

[2] = Hydrolysis studies of drug esters in PBS solution (pH 7.5); format: physicochemical; conditions: PBS pH 7.5, room temperature, read-out: t1/2 for hydrolysis
Description: Drug ester (20 μL, 10 mM acetonitrile) is added to 1 mL PBS solution (pH 7.5) at room temperature. At intermittent time points, an aliquot of the resulting mixture is injected into an HPLC to obtain the ratio of drug ester to drug acid or drug alcohol. An Arrhenius plot of the data provides a t1/2 for hydrolysis.

[3] = Human serum hydrolysis studies of drug esters; format: in vitro ADME; conditions: 37° C., read-out: t1/2 for hydrolysis
Description: Human serum (2.34 mL) is placed in a test tube. To the serum is added 260 μL of a 10 mM solution of drug ester in acetonitrile. The tube is placed in a 37° C. incubator, and at various time points a 500 μL aliquot is removed. The aliquot is mixed with 500 μL methanol, and the mixture is vortex mixed and centrifuged. A sample of the supernatant is analyzed by HPLC obtain the ratio of drug ester to drug acid or drug alcohol. An Arrhenius plot of the data provides a t1/2 for hydrolysis.

Row | Compound | AEROSOL PURITY [1] | half-life at 0.196 mM [2] | half-life at 1 mM [3]
1 | CC(=O)Oc1ccc2c(c1OC(C)=O)-c1cccc3c1C(C2)N(C)CC3.Cl (stereo not drawn) [Apomorphine Diacetate-HCl] | 94% | – | –
2 | CC(C(=O)OCCN(C)C)c1cccc(C(=O)c2ccccc2)c1 (stereo not drawn) [Ketoprofen Norcholine Ester] | 100% | – | –
3 | CCOC(=O)C(C)c1cccc(C(=O)c2ccccc2)c1 (stereo not drawn) [Ketoprofen Ethyl Ester] | 99.65% | > 48 h | 3.73 h
4 | COc1ccc2c(c1)c(CC(=O)OCCN(C)C)c(C)n2C(=O)c1ccc(Cl)cc1 [Indomethacin Norcholine Ester] | 100% | – | –
5 | Apomorphine Diacetate | 96.9% | – | –
6 | COC(=O)Cc1c(C)n(C(=O)c2ccc(Cl)cc2)c2ccc(OC)cc12 [Indomethacin Methyl Ester] | 99% | – | –
7 | COC(=O)C(C)c1cccc(C(=O)c2ccccc2)c1 (stereo not drawn) [Ketoprofen Methyl Ester] | 99% | > 48 h | 2.4 h
8 | CN(C)CCOC(=O)C1CCn2c(C(=O)c3ccccc3)ccc21 (stereo not drawn) [Ketorolac Norcholine Ester, 2-(N,N-Dimethylamino)Ethyl Ester of Ketorolac] | 100% | – | –
9 | CCOC(=O)Cc1c(C)n(C(=O)c2ccc(Cl)cc2)c2ccc(OC)cc12 [Indomethacin Ethyl Ester] | >99% | – | –
10 | COC(=O)C1CCn2c(C(=O)c3ccccc3)ccc21 (stereo not drawn) [Ketorolac Methyl Ester] | 100% | – | –
11 | CCOC(=O)C1CCn2c(C(=O)c3ccccc3)ccc21 (stereo not drawn) [Ketorolac Ethyl Ester] | >99% | – | –
